# Tested on: barnyardgrass (Echinochloa crus-galli)
# Test: Test A pre-/postemergence greenhouse herbicide test, visual injury rating 0-100
# Format: in vivo
# Conditions: Postemergence, 125 g ai/ha
# Procedure, shortened: (§1)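 Seeds planted in loam-sand blend; preemergence directed soil spray and postemergence spray at 2–10 cm, one- to two-leaf stage, compounds formulated in non-phytotoxic solvent with surfactant. After about 10 days in greenhouse, injury rated visually against untreated controls, 0 (no effect) to 100 (complete control).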
row,Structure (SMILES),"Plant response rating (0 to 100 scale), Barnyardgrass"
1,Cn1cc(C(=O)c2cccnc2)c(-c2cc(Cl)cc(Cl)c2)n1 [Compound 6],0

# Same assay, conditions: Postemergence, 500 g ai/ha
row,Structure (SMILES),"Plant response rating (0 to 100 scale), Barnyardgrass"
1,Cn1cc(C(=O)c2cccnc2)c(-c2cc(Cl)cc(Cl)c2)n1 [Compound 6],0

# Same assay, conditions: Preemergence, 125 g ai/ha
row,Structure (SMILES),"Barnyardgrass plant response rating (0 = no effect, 100 = complete control)"
1,Cn1cc(C(=O)c2cccnc2)c(-c2cc(Cl)cc(Cl)c2)n1 [Compound 6],0

# Same assay, conditions: Preemergence, 500 g ai/ha
row,Structure (SMILES),"Plant response rating (0 to 100 scale), Barnyardgrass"
1,Cn1cc(C(=O)c2cccnc2)c(-c2cc(Cl)cc(Cl)c2)n1 [Compound 6],0

# Tested on: pigweed (Amaranthus retroflexus)
# Test: as above
# Format: in vivo
# Conditions: Postemergence, 125 g ai/ha
# Procedure, shortened: as §1
row,Structure (SMILES),"Plant response rating (0 to 100 scale), Pigweed"
1,Cn1cc(C(=O)c2cccnc2)c(-c2cc(Cl)cc(Cl)c2)n1 [Compound 6],0

# Same assay, conditions: Postemergence, 500 g ai/ha
row,Structure (SMILES),"Plant response rating (0 to 100 scale), Pigweed"
1,Cn1cc(C(=O)c2cccnc2)c(-c2cc(Cl)cc(Cl)c2)n1 [Compound 6],30

# Same assay, conditions: Preemergence, 125 g ai/ha
row,Structure (SMILES),"Pigweed plant response rating (0 = no effect, 100 = complete control)"
1,Cn1cc(C(=O)c2cccnc2)c(-c2cc(Cl)cc(Cl)c2)n1 [Compound 6],0

# Same assay, conditions: Preemergence, 500 g ai/ha
row,Structure (SMILES),"Plant response rating (0 to 100 scale), Pigweed"
1,Cn1cc(C(=O)c2cccnc2)c(-c2cc(Cl)cc(Cl)c2)n1 [Compound 6],20

# Tested on: wheat (Triticum aestivum)
# Test: as above
# Format: in vivo
# Conditions: Postemergence, 125 g ai/ha
# Procedure, shortened: as §1
row,Structure (SMILES),"Plant response rating (0 to 100 scale), Wheat"
1,Cn1cc(C(=O)c2cccnc2)c(-c2cc(Cl)cc(Cl)c2)n1 [Compound 6],0

# Same assay, conditions: Postemergence, 500 g ai/ha
row,Structure (SMILES),"Plant response rating (0 to 100 scale), Wheat"
1,Cn1cc(C(=O)c2cccnc2)c(-c2cc(Cl)cc(Cl)c2)n1 [Compound 6],0

# Same assay, conditions: Preemergence, 125 g ai/ha
row,Structure (SMILES),"Wheat plant response rating (0 = no effect, 100 = complete control)"
1,Cn1cc(C(=O)c2cccnc2)c(-c2cc(Cl)cc(Cl)c2)n1 [Compound 6],0

# Same assay, conditions: Preemergence, 500 g ai/ha
row,Structure (SMILES),"Plant response rating (0 to 100 scale), Wheat"
1,Cn1cc(C(=O)c2cccnc2)c(-c2cc(Cl)cc(Cl)c2)n1 [Compound 6],0

# Tested on: corn (Zea mays)
# Test: as above
# Format: in vivo
# Conditions: Postemergence, 125 g ai/ha
# Procedure, shortened: as §1
row,Structure (SMILES),"Plant response rating (0 to 100 scale), Corn"
1,Cn1cc(C(=O)c2cccnc2)c(-c2cc(Cl)cc(Cl)c2)n1 [Compound 6],0

# Same assay, conditions: Postemergence, 500 g ai/ha
row,Structure (SMILES),"Plant response rating (0 to 100 scale), Corn"
1,Cn1cc(C(=O)c2cccnc2)c(-c2cc(Cl)cc(Cl)c2)n1 [Compound 6],0

# Same assay, conditions: Preemergence, 125 g ai/ha
row,Structure (SMILES),"Corn plant response rating (0 = no effect, 100 = complete control)"
1,Cn1cc(C(=O)c2cccnc2)c(-c2cc(Cl)cc(Cl)c2)n1 [Compound 6],0

# Same assay, conditions: Preemergence, 500 g ai/ha
row,Structure (SMILES),"Plant response rating (0 to 100 scale), Corn"
1,Cn1cc(C(=O)c2cccnc2)c(-c2cc(Cl)cc(Cl)c2)n1 [Compound 6],0

# Tested on: morningglory (Ipomoea spp.)
# Test: as above
# Format: in vivo
# Conditions: Postemergence, 125 g ai/ha
# Procedure, shortened: as §1
row,Structure (SMILES),"Plant response rating (0 to 100 scale), Morningglory"
1,Cn1cc(C(=O)c2cccnc2)c(-c2cc(Cl)cc(Cl)c2)n1 [Compound 6],0

# Same assay, conditions: Postemergence, 500 g ai/ha
row,Structure (SMILES),"Plant response rating (0 to 100 scale), Morningglory"
1,Cn1cc(C(=O)c2cccnc2)c(-c2cc(Cl)cc(Cl)c2)n1 [Compound 6],0

# Same assay, conditions: Preemergence, 125 g ai/ha
row,Structure (SMILES),"Morningglory plant response rating (0 = no effect, 100 = complete control)"
1,Cn1cc(C(=O)c2cccnc2)c(-c2cc(Cl)cc(Cl)c2)n1 [Compound 6],0

# Same assay, conditions: Preemergence, 500 g ai/ha
row,Structure (SMILES),"Plant response rating (0 to 100 scale), Morningglory"
1,Cn1cc(C(=O)c2cccnc2)c(-c2cc(Cl)cc(Cl)c2)n1 [Compound 6],0

# Tested on: velvetleaf (Abutilon theophrasti)
# Test: as above
# Format: in vivo
# Conditions: Postemergence, 125 g ai/ha
# Procedure, shortened: as §1
row,Structure (SMILES),"Plant response rating (0 to 100 scale), Velvetleaf"
1,Cn1cc(C(=O)c2cccnc2)c(-c2cc(Cl)cc(Cl)c2)n1 [Compound 6],10

# Same assay, conditions: Postemergence, 500 g ai/ha
row,Structure (SMILES),"Plant response rating (0 to 100 scale), Velvetleaf"
1,Cn1cc(C(=O)c2cccnc2)c(-c2cc(Cl)cc(Cl)c2)n1 [Compound 6],10

# Same assay, conditions: Preemergence, 125 g ai/ha
row,Structure (SMILES),"Velvetleaf plant response rating (0 = no effect, 100 = complete control)"
1,Cn1cc(C(=O)c2cccnc2)c(-c2cc(Cl)cc(Cl)c2)n1 [Compound 6],0

# Same assay, conditions: Preemergence, 500 g ai/ha
row,Structure (SMILES),"Plant response rating (0 to 100 scale), Velvetleaf"
1,Cn1cc(C(=O)c2cccnc2)c(-c2cc(Cl)cc(Cl)c2)n1 [Compound 6],20

# Tested on: giant foxtail (Setaria faberii)
# Test: as above
# Format: in vivo
# Conditions: Postemergence, 125 g ai/ha
# Procedure, shortened: as §1
row,Structure (SMILES),"Plant response rating (0 to 100 scale), Foxtail, Giant"
1,Cn1cc(C(=O)c2cccnc2)c(-c2cc(Cl)cc(Cl)c2)n1 [Compound 6],0

# Same assay, conditions: Postemergence, 500 g ai/ha
row,Structure (SMILES),"Plant response rating (0 to 100 scale), Foxtail, Giant"
1,Cn1cc(C(=O)c2cccnc2)c(-c2cc(Cl)cc(Cl)c2)n1 [Compound 6],0

# Same assay, conditions: Preemergence, 125 g ai/ha
row,Structure (SMILES),"Foxtail, Giant plant response rating (0 = no effect, 100 = complete control)"
1,Cn1cc(C(=O)c2cccnc2)c(-c2cc(Cl)cc(Cl)c2)n1 [Compound 6],0

# Same assay, conditions: Preemergence, 500 g ai/ha
row,Structure (SMILES),"Plant response rating (0 to 100 scale), Foxtail, Giant"
1,Cn1cc(C(=O)c2cccnc2)c(-c2cc(Cl)cc(Cl)c2)n1 [Compound 6],0

# Tested on: large (Lg) crabgrass (Digitaria sanguinalis)
# Test: as above
# Format: in vivo
# Conditions: Postemergence, 125 g ai/ha
# Procedure, shortened: as §1
row,Structure (SMILES),"Plant response rating (0 to 100 scale), Crabgrass, Large"
1,Cn1cc(C(=O)c2cccnc2)c(-c2cc(Cl)cc(Cl)c2)n1 [Compound 6],0

# Same assay, conditions: Postemergence, 500 g ai/ha
row,Structure (SMILES),"Plant response rating (0 to 100 scale), Crabgrass, Large"
1,Cn1cc(C(=O)c2cccnc2)c(-c2cc(Cl)cc(Cl)c2)n1 [Compound 6],0

# Same assay, conditions: Preemergence, 125 g ai/ha
row,Structure (SMILES),"Crabgrass, Large plant response rating (0 = no effect, 100 = complete control)"
1,Cn1cc(C(=O)c2cccnc2)c(-c2cc(Cl)cc(Cl)c2)n1 [Compound 6],0

# Same assay, conditions: Preemergence, 500 g ai/ha
row,Structure (SMILES),"Plant response rating (0 to 100 scale), Crabgrass, Large"
1,Cn1cc(C(=O)c2cccnc2)c(-c2cc(Cl)cc(Cl)c2)n1 [Compound 6],0

# Tested on: sedge, umbrella (small-flower umbrella sedge, Cyperus difformis)
# Test: Test B flooded paddy test, plant response rating 0-100
# Format: in vivo
# Conditions: Flood, 250 g ai/ha; scale 0 to 100 (0 no effect, 100 complete control); 13 to 15 days
# Text: (§2) At time of treatment, test pots were flooded to 3 cm above the soil surface, treated by application of test compounds directly to the paddy water, and then maintained at that water depth for the duration of the test. Treated plants and controls were maintained in a greenhouse for 13 to 15 days, after which time all species were compared to controls and visually evaluated. […] A dash (-) response means no test result.
row,Structure (SMILES),"Plant response rating, Sedge, Umbrella"
1,Cn1cc(C(=O)c2cccnc2)c(-c2cc(Cl)cc(Cl)c2)n1 [Compound 6],0

# Tested on: barnyardgrass (Echinochloa crus-galli)
# Test: as above
# Format: in vivo
# Conditions: Flood, 250 g ai/ha; scale 0 to 100 (0 no effect, 100 complete control); 13 to 15 days
# Text: as §2
row,Structure (SMILES),"Plant response rating, Barnyardgrass"
1,Cn1cc(C(=O)c2cccnc2)c(-c2cc(Cl)cc(Cl)c2)n1 [Compound 6],0

# Tested on: ducksalad (Heteranthera limosa)
# Test: as above
# Format: in vivo
# Conditions: Flood, 250 g ai/ha; scale 0 to 100 (0 no effect, 100 complete control); 13 to 15 days
# Text: as §2
row,Structure (SMILES),"Plant response rating, Ducksalad"
1,Cn1cc(C(=O)c2cccnc2)c(-c2cc(Cl)cc(Cl)c2)n1 [Compound 6],0

# Tested on: rice (Oryza sativa)
# Test: as above
# Format: in vivo
# Conditions: Flood, 250 g ai/ha; scale 0 to 100 (0 no effect, 100 complete control); 13 to 15 days
# Text: as §2
row,Structure (SMILES),"Plant response rating, Rice"
1,Cn1cc(C(=O)c2cccnc2)c(-c2cc(Cl)cc(Cl)c2)n1 [Compound 6],0
